Results: ChEMBL document CHEMBL3352452, “Phosphoinositide-3-kinase inhibitors: evaluation of substituted alcohols as replacements for the piperazine sulfonamide portion of AMG 511” (Bioorg Med Chem Lett, 2014)
Activity calls are given as the source filed them. No cut-off for these calls is given here.

What was measured:
[1] = Intrinsic clearance in human liver microsomes at 1 uM after 30 mins; format: ADME; conditions: read-out: CLH
[2] = Inhibition of PI3K-mediated Akt S473 phosphorylation in human U87MG cells after 2 hrs by cell-based assay; set-up: species or system U-87MG ATCC; conditions: U-87 MG
[3] = molecular target: PI3-kinase p110-alpha/p85-alpha (Homo sapiens, UniProt P42336); test: Inhibition of human N-terminal poly-His tagged p110 alpha/ p85alpha expressed in Sf9 Baculovirus system after 20 mins by AlphaScreen assay
Sequence of PI3-kinase p110-alpha/p85-alpha (P27986 whole entry, the tested form may be a part): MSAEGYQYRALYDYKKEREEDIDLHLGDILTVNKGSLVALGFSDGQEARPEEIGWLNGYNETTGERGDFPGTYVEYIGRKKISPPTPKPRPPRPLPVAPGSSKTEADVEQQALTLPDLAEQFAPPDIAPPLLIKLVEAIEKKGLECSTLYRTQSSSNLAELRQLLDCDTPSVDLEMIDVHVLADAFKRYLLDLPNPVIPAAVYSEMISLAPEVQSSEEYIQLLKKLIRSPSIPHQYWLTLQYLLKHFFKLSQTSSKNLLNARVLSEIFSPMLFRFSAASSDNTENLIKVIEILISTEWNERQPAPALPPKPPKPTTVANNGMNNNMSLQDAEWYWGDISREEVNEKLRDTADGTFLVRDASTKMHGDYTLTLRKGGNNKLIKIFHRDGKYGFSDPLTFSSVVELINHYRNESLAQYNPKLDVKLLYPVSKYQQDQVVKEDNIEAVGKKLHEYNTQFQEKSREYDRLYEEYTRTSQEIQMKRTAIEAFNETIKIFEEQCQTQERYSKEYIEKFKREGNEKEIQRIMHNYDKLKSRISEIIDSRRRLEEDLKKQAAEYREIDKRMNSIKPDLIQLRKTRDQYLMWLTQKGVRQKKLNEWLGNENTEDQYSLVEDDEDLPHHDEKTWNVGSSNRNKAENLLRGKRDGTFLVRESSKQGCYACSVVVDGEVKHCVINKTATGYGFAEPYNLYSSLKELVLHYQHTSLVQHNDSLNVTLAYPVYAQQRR
Sequence of PI3-kinase p110-alpha/p85-alpha (P42336 whole entry, the tested form may be a part): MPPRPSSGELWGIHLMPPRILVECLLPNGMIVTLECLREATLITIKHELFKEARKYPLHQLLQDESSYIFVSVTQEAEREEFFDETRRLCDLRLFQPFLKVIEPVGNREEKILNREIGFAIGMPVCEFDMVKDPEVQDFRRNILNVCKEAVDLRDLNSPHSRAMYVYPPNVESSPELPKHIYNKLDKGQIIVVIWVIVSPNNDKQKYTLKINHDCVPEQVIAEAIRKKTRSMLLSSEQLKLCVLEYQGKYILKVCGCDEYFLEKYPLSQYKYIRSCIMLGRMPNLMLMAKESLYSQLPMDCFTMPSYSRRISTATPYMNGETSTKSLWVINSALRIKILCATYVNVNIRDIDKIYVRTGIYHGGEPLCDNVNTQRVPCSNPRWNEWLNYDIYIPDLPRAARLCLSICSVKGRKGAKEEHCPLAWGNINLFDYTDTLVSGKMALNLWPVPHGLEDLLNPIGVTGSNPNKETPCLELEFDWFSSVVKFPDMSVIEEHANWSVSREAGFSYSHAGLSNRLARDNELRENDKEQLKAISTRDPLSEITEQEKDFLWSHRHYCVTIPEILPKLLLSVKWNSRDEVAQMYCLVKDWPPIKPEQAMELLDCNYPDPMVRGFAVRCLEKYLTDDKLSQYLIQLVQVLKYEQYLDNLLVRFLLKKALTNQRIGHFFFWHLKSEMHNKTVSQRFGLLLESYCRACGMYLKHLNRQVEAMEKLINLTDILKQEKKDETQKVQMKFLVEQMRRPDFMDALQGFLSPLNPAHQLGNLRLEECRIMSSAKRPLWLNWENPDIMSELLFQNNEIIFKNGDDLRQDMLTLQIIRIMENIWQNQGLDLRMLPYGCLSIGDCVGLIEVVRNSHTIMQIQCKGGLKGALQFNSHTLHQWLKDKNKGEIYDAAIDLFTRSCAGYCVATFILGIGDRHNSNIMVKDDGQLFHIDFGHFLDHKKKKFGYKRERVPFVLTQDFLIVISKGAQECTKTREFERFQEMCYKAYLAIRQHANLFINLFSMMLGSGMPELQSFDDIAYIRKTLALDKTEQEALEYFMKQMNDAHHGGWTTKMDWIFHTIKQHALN

[4] = molecular target: Serine/threonine-protein kinase mTOR (Homo sapiens, UniProt P42345); test: Inhibition of recombinant N-terminally GST-tagged mTOR (1360 to 2549 aa) (unknown origin) assessed as inhibition of 27BP1 phosphorylation after 90 mins by TR-FRET assay
[5] = Intrinsic clearance in rat liver microsomes at 1 uM after 30 mins; format: ADME; conditions: read-out: CLH
[6] = Terminal half life in Sprague-Dawley rat at 1 mg/kg, iv and 2 mg/kg, po; format: ADME, organism-based; conditions: in vivo, read-out: beta t1/2 (converted)
[7] = Volume of distribution at steady state in Sprague-Dawley rat at 1 mg/kg, iv and 2 mg/kg, po; format: ADME, organism-based; conditions: in vivo, read-out: Vdss
P-gp = test: Efflux ratio of permeability across pig LLC-PK1 cells stably over-expressing rat P-gp at 5 uM; format: ADME, cell-based, Sus scrofa
[8] = Clearance in Sprague-Dawley rat at 1 mg/kg, iv and 2 mg/kg, po; format: ADME, organism-based; conditions: in vivo
[9] = Fraction unbound in Sprague-Dawley rat plasma at 1 mg/kg, iv and 2 mg/kg, po; format: ADME, organism-based
Mus musculus [10] = test: Inhibition of HGF-induced PI3K-mediated Akt phosphorylation at Ser473 in female CD1 nude mouse liver at 10 to 30 mg/kg, po administered 6 hrs prior HGF treatment measured after 5 mins by electrochemical luminescence immunoassay; format: functional, organism-based
[11] = Oral bioavailability in Sprague-Dawley rat at 2 mg/kg; format: ADME, organism-based; conditions: in vivo
Mus musculus [12] = test: Inhibition of HGF-induced PI3K-mediated Akt phosphorylation at Ser473 in female CD1 nude mouse liver compound administered orally 6 hrs prior HGF treatment measured after 5 mins by electrochemical luminescence immunoassay; format: functional, organism-based

SMILES	microsomal CLint at 1 µM [1] [µL/min/mg]	IC50 [2] [nM]	Ki [3] [nM]	IC50 [4] [nM]	microsomal CLint at 1 µM [5] [µL/min/mg]	also measured
COc1ccc(Nc2ncc(C(C)(C)O)cc2-c2nc(C)nc(N)n2)cn1	< 14	48	89	790	19	–
COc1ncc(Nc2ncc([C@@H](C)O)cc2-c2nc(C)nc(N)n2)cc1F	22	20	40	> 25000	45	–
Cc1nc(N)nc(-c2cc(C(C)(C)O)cnc2Nc2cncc(F)c2)n1	< 14	–	87	2500	15	–
COc1cc(Nc2ncc(C(C)(C)O)cc2-c2nc(C)nc(N)n2)cnc1OC	< 14	10	30	10600	< 14	half-life [6]: 4.8 h; Vd [7]: 4.2 L/kg; efflux ratio at 5 µM (P-gp): 25; clearance [8]: 21.7 mL/min/kg
COc1ncc(Nc2ncc([C@H](C)O)cc2-c2nc(C)nc(N)n2)cc1F	< 14	26	48	> 25000	< 14	–
COc1ncc(Nc2ncc([C@@H](C)N3CCN(S(C)(=O)=O)CC3)cc2-c2nc(C)nc(N)n2)cc1F	–	–	–	–	20	half-life [6]: 3.3 h; fraction unbound [9]: 0.08; clearance [8]: 7.5 mL/min/kg
COc1ncc(Nc2ncc(C(C)(C)CO)cc2-c2nc(C)nc(N)n2)cc1F	34	–	40	> 17000	34	–
Cc1nc(N)nc(-c2cc(C(C)(C)O)cnc2Nc2cncc(S(C)(=O)=O)c2)n1	< 14	1160	–	> 16000	< 14	–
Cc1nc(N)nc(-c2cc(C(C)(C)O)cnc2Nc2cncc(S(=O)(=O)c3ccccc3)c2)n1	–	–	224	6700	–	–
COc1ncc(Nc2ncccc2-c2nc(C)nc(N)n2)cc1F	99	–	48	> 22000	36	–
COc1ncc(Nc2ncc(C(C)(C)O)cc2-c2nc(C)nc(N)n2)cc1F	< 14	–	23	7800	23	half-life [6]: 3.1 h; inhibition (Mus musculus [10]): Active; bioavailability [11]: 37%; Vd [7]: 1.7 L/kg; inhibition (Mus musculus [12]): Dose-dependent effect; fraction unbound [9]: 0.06; clearance [8]: 18.3 mL/min/kg
COc1ncc(Nc2ncc([C@H](C)CO)cc2-c2nc(C)nc(N)n2)cc1F	14	–	26	11100	36	–
COc1ncc(Nc2ncc(C(O)C(F)(F)F)cc2-c2nc(C)nc(N)n2)cc1F (racemic)	18	–	30	2200	34	–
COc1ncc(Nc2ncc(CO)cc2-c2nc(C)nc(N)n2)cc1F	–	44	56	> 15000	51	–
COc1ncc(Nc2ncc(C(C)(C)O)cc2-c2nc(C)nc(N)n2)cc1C(C)C	–	414	153	> 25000	–	–
COc1ncc(Nc2ncc(C(C)(C)O)cc2-c2nc(C)nc(N)n2)cc1C(F)(F)F	–	–	–	> 25000	–	–
COc1ncc(Nc2ncc([C@@H](C)CO)cc2-c2nc(C)nc(N)n2)cc1F	< 14	–	40	> 15000	37	–
COc1ncc(Nc2ncc(C(C)(C)O)cc2-c2nc(C)nc(N)n2)cc1C	< 14	49	118	7800	22	–
COc1ncc(Nc2ncc(C3(O)CC3)cc2-c2nc(C)nc(N)n2)cc1F	39	18	16	3700	79	–
CCc1cc(Nc2ncc(C(C)(C)O)cc2-c2nc(C)nc(N)n2)cnc1OC	–	470	469	15800	–	–
COc1cncc(Nc2ncc(C(C)(C)O)cc2-c2nc(C)nc(N)n2)c1	17	–	89	2100	19	–
